Experimental data taken from patent publication US20240150339A1, “Compounds and Their Use as PDE4 Activators” (Mironid Limited, priority 2021, published 2024).

biological target: T1, PDE4D5 (Homo sapiens, UniProt Q08499); assay: PDE assay, activation of full-length human PDE4D5 long form ([3H]cAMP radio-assay); format: biochemical; conditions: 30 μM test compound; mean % increase in counts over basal activity
T1 construct: Using Full-Length Human PDE4 Isoforms: Long Forms PDE4D5, PDE4C3, PDE4B1 and Short Form PDE4B2; made in house; cytosol fraction of the cell lysate, not purified
T1 sequence (Q08499 1-745 isoform Q08499-6): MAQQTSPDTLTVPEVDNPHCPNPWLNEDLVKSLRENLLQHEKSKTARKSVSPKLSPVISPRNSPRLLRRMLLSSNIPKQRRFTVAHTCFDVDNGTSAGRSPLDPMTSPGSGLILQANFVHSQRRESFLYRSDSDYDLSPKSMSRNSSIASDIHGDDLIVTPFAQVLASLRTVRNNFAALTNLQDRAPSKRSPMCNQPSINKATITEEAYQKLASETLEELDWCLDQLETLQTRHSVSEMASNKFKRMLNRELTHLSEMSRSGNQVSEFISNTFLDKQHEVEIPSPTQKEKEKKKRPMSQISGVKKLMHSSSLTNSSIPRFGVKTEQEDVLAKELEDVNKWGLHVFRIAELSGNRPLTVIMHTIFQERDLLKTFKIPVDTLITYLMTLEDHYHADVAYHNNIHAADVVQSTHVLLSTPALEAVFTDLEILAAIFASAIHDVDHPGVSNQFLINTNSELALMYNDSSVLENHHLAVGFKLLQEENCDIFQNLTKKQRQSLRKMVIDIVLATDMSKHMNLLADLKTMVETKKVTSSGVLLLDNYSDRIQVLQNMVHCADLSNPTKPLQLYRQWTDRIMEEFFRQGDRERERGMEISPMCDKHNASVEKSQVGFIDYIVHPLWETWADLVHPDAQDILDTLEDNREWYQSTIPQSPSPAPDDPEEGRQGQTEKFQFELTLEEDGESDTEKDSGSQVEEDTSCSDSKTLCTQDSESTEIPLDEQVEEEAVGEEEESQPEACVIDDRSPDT
From the text: Experiment 1: Measurement of Modulation of Enzyme Activity by PDE4 Long Form Activators of the Present Invention Using Full-Length Human PDE4 Isoforms: Long Forms PDE4D5, PDE4C3, PDE4B1 and Short Form PDE4B2
(Marchmont, R. J. and Houslay, M. D. Biochem. J. 187: 381-92, 1980)
For transient transfection of exogenous PDE4 long isoforms, HEK 293 cells were transfected with pcDNA3.1 or pDEST™ PDE4 expression vectors using Lipofectamine LTX/Plus reagent (Invitrogen) as outlined by the manufacturer.
Where stable cell lines were generated the clonal isolates were expanded to obtain cell lines that stably expressed the full-length human PDE4 long isoforms and the full length human PDE4B2 short isoform. These were called the HEK-PDE4D5, HEK-PDE4B1 and HEK-PDE4B2 cell lines, respectively.
HEK-PDE4D5 cells were seeded out in 100 mm plates and incubated at 37° C. in an atmosphere of 5% CO2, 95% air. Cell lysates were prepared using KHEM buffer [50 mM KCl, 10 mM EGTA, 50 mM HEPES (pH 7.2), 1.92 mM MgCl2].
To prepare the cell lysates, the 100 mm plates containing the cells were placed on ice and washed with ice-cold PBS (phosphate buffered saline, pH 7.4). KHEM buffer (500 μl) was added to the cells. Cells were then scraped off the plate and triturated using a needle (BD Microlance™ 0.8, 40 mm). The lysed cells were then centrifuged at 2000 rpm for 10 minutes to remove cell debris and the supernatant (cell lysate containing recombinant PDE4D5) was transferred to a fresh tube and kept on ice.
The cell lysate containing recombinant PDE4D5 was transferred into a centrifuge tube and placed into an ultracentrifuge (BECKMAN COULTER) and spun at high speed (100,000 g) for 30 minutes at 4° C. The cytosol fraction was then collected and its protein amount determined using a BCA protein assay.
PDE assays were performed in thin walled V-bottomed 96-well plates. The assays were performed at a final concentration of 10 mM Tris/5 mM MgCl2 μlus PDE4D5 cell lysate cytosol fraction, containing over-expressed PDE4D5, with and without test compound. The lysate/compound mix were incubated together for 15 min at room temperature on an orbital shaker prior to addition of [^3H] cAMP (final concentration 1 μM [^3H] cAMP; Perkin Elmer) to a final volume of 50 μl per reaction. The reactions were then incubated for 10 minutes at 30° C., terminated by heating for 2 min at 95° C. and allowed to cool. Snake venom (12.5 μl of 1 mg/ml; Crotalus atrox, Sigma) was then added and the plates were agitated and incubated for a further 15 minutes at 30° C. Dowex ion exchange resin (Sigma, chloride form, 200-400 mesh; 200 μl; prepared as a 1:1 Dowex: water stock, thoroughly re-suspended and diluted 2:1 with ethanol) was then added to each well and the plates incubated for 15 min at room temperature on an orbital shaker ensuring sufficient agitation for resin suspension (550 RPM). The reaction mixture was then transferred to a 96 well filter plate (Millipore; […] pore size) and filtered into a receiving 96-well plate to remove the dowex suspension. 30 μL of the filtered solution was then transferred to the wells of an Opti-plate (Perkin Elmer) 96 well assay plate and 120 μl of Microscint 40 scintillation fluid was added. The plate was then placed on an orbital shaker for 10 min at high speed (900 RPM) to mix the sample with scintillation fluid prior to quantitation using a plate based scintillation counter (Top-Count).
The % increase in counts in the presence of test compound at a particular concentration indicates the % increase in enzyme activity at that concentration.

activation at 30 µM	SMILES
82%	O=C(N[C@H]1CCCc2ccccc21)c1ccc2nc(-c3cccnc3)sc2c1 [Example 8, (S)-2-(pyridin-3-yl)-N-(1,2,3,4-tetrahydronaphthalen-1-yl)benzo[d]thiazole-6-carboxamide]
78%	Cc1ccc(-c2nc3ccc(C(=O)NCc4ccccc4)cc3s2)cn1 [Example 10, N-benzyl-2-(6-methylpyridin-3-yl)benzo[d]thiazole-6-carboxamide]
104%	Cc1ccc(-c2nc3ccc(C(=O)NCc4ccc(Cl)cc4)cc3s2)cn1 [Example 11, N-(4-chlorobenzyl)-2-(6-methylpyridin-3-yl)benzo[d]thiazole-6-carboxamide]
58%	Cc1ccc(-c2nc3ccc(C(=O)NCc4ccc(F)cc4)cc3s2)cn1 [Example 12, N-(4-fluorobenzyl)-2-(6-methylpyridin-3-yl)benzo[d]thiazole-6-carboxamide]
93%	COc1ccc(CNC(=O)c2ccc3nc(-c4ccc(C)nc4)sc3c2)cc1 [Example 13, N-(4-methoxybenzyl)-2-(6-methylpyridin-3-yl)benzo[d]thiazole-6-carboxamide]
120%	Cc1ccc(-c2nc3ccc(C(=O)NCc4cccc(Cl)c4)cc3s2)cn1 [Example 14, N-(3-chlorobenzyl)-2-(6-methylpyridin-3-yl)benzo[d]thiazole-6-carboxamide]
99%	Cc1ccc(-c2nc3ccc(C(=O)NCc4cccc(F)c4)cc3s2)cn1 [Example 15, N-(3-fluorobenzyl)-2-(6-methylpyridin-3-yl)benzo[d]thiazole-6-carboxamide]
64%	COc1cccc(CNC(=O)c2ccc3nc(-c4ccc(C)nc4)sc3c2)c1 [Example 16, N-(3-methoxybenzyl)-2-(6-methylpyridin-3-yl)benzo[d]thiazole-6-carboxamide]
171%	Cc1ccc(-c2nc3ccc(C(=O)N[C@H]4CCc5ccccc54)cc3s2)cn1 [Example 17, (S)-N-(2,3-dihydro-1H-inden-1-yl)-2-(6-methylpyridin-3-yl)benzo[d]thiazole-6-carboxamide]
142%	Cc1ccc(-c2nc3ccc(C(=O)N[C@@H]4CCc5ccccc54)cc3s2)cn1 [Example 18, (R)-N-(2,3-dihydro-1H-inden-1-yl)-2-(6-methylpyridin-3-yl)benzo[d]thiazole-6-carboxamide]
73%	Cc1ccc(-c2nc3ccc(C(=O)N[C@H]4c5ccccc5C[C@H]4O)cc3s2)cn1 [Example 19, N-((1S,2R)-2-hydroxy-2,3-dihydro-1H-inden-1-yl)-2-(6-methylpyridin-3-yl)benzo[d]thiazole-6-carboxamide]
105%	Cc1ccc(-c2nc3ccc(C(=O)N[C@@H]4c5ccccc5C[C@@H]4O)cc3s2)cn1 [Example 20, N-((1R,2S)-2-hydroxy-2,3-dihydro-1H-inden-1-yl)-2-(6-methylpyridin-3-yl)benzo[d]thiazole-6-carboxamide]
193%	Cc1ccc(-c2nc3ccc(C(=O)N[C@@H]4c5ccccc5C[C@H]4O)cc3s2)cn1 [Example 21, N-((1R,2R)-2-hydroxy-2,3-dihydro-1H-inden-1-yl)-2-(6-methylpyridin-3-yl)benzo[d]thiazole-6-carboxamide]
39%	Cc1ccc(-c2nc3ccc(C(=O)NC4CCCC4)cc3s2)cn1 [Example 22, N-cyclopentyl-2-(6-methylpyridin-3-yl)benzo[d]thiazole-6-carboxamide]
94%	Cc1ccc(-c2nc3ccc(C(=O)N[C@H]4CCCc5ccccc54)cc3s2)cn1 [Example 23, (S)-2-(6-methylpyridin-3-yl)-N-(1,2,3,4-tetrahydronaphthalen-1-yl)benzo[d]thiazole-6-carboxamide]
97%	Cc1ccc(-c2nc3ccc(C(=O)N[C@H]4CCOc5ccccc54)cc3s2)cn1 [Example 24, (S)-N-(chroman-4-yl)-2-(6-methylpyridin-3-yl)benzo[d]thiazole-6-carboxamide]
88%	Cc1ccc(-c2nc3ccc(C(=O)N[C@H]4CCOc5ccccc54)cc3s2)c(C)n1 [Example 26, (S)-N-(chroman-4-yl)-2-(2,6-dimethylpyridin-3-yl)benzo[d]thiazole-6-carboxamide]
154%	O=C(N[C@H]1CCOc2ccccc21)c1ccc2nc(-c3ccc(C4CC4)nc3)sc2c1 [Example 27, (S)-N-(chroman-4-yl)-2-(6-cyclopropylpyridin-3-yl)benzo[d]thiazole-6-carboxamide]

system: m-IMCD3 cells; assay: Inhibition of PGE2-stimulated in vitro cyst formation in 3D culture of m-IMCD3 cells; format: cell-based, mouse; conditions: Mus musculus, mIMCD3, 144 h; 10 μM test compound; mean cyst area (%) compared to 100% for (DMSO + PGE2) and 0% for DMSO control; 100 nM PGE2; 6 days; read-out: % Cyst area after incubation with 10 μM test compound
Method: HEK 293 and MDCK cells (Public Health England, Cell Culture Collections) were maintained in Dulbecco's Modified Eagle's Medium (DMEM) supplemented with 10% (v/v) fetal bovine serum (FBS) (Seralab), 2 mM L-glutamine and 100 U/ml penicillin streptomycin cocktail (ThermoFisher); termed complete media. Clonal HEK 293 cell lines were maintained in complete media supplemented with 0.6 mg/mL G418 (Enzo Life Sciences). Mouse inner medullary collecting duct (m-IMCD3) cells [American Type Culture Collection (ATCC)] were maintained in media consisting of DMEM/Hams F-12 50/50 Mix (DMEM F12; Corning) supplemented with penicillin streptomycin cocktail (100 U/ml) and FBS (10% v/v) (DMEM F12-10% FBS).
The mouse Inner Medullary Collecting Duct cell line (m-IMCD3) spontaneously forms cystic spheroids in 3D culture with a Type 1 collagen/Matrigel extracellular matrix. This process can be stimulated with agents which raise intracellular cAMP, such as PGE2, and is used as an in vitro model for the formation of cystic structures in the kidneys of patients with ADPKD.
Rat Collagen I (Fisher Scientific) is prepared on ice by neutralising with 1M NaOH and diluting with a 2×volume of DMEM/F12+10% FBS for coating plate (coating mix) and a 2.2 volume of DMEM/F12+10% FBS for cell plating (plating mix). This is mixed 1:1.1 with ice cold Matrigel (Corning) for coating plates (coating mix), and 1:0.95 with Matrigel for cell plating (plating mix).
The assay is conducted in the wells of a 96-well plate culture dish using a total volume of 130 μl of collagen/Matrigel/DMEM F12-10% FBS suspension in growth media for each matrix plug per individual well. Initially, 30 μl of collagen/Matrigel/DMEM F12-10% FBS (coating mix) is added into the well of a 96 well plate and the collagen is set to a gel by incubating at 37° C. for at least 15 minutes. A second layer of 100 μl collagen/Matrigel suspension (plating mix) containing m-IMCD3 cells (2.75×10^6 m-IMCD3 cells per 96-well plate) is layered over the coating mix and the collagen/Matrigel/cell mix again set to a gel by incubating at 37° C. Cell cultures are maintained at 37° C. in an atmosphere of 5% CO2, 95% air.
Between 18 and 24h after plating, test compound(s) as DMSO stock solutions [0.1% (v/v) final DMSO concentration] and PGE2 (100 nM final concentration) in DMEM F12-10% FBS are added in quadruplicate wells per condition. Media, togetherwith the test compound and PGE2 are replenished after 2 or 3 days. After 6 days of culture z stack images of the wells are captured using the Nikon Eclipse Ti2-E microscope. Nikon General Analysis software is used to measure the following parameters in each well: the mean cyst area, the number of cysts, and the total cyst area.
PDE4 long form activators inhibited in vitro cyst formation in m-IMCD3 cells. Data are shown in FIG. 2 and Table 5 as mean cyst area (%), compared to 100% for (DMSO+PGE2) and 0% for DMSO control.

SMILES	activity at 10 µM
CC(C)OCCNC(=O)c1ccc2nc(N3C4CCC3CNC4)sc2c1 [Example 278, 2-(3,8-diazabicyclo[3.2.1]octan-8-yl)-N-(2-isopropoxyethyl)benzo[d]thiazole-6-carboxamide]	18%
CCN1CC(c2nc3ccc(C(=O)NC4CCCC4)cc3s2)C1 [Example 281, N-cyclopentyl-2-(1-ethylazetidin-3-yl)benzo[d]thiazole-6-carboxamide]	10%
O=C(NC1CCCC1)c1ccc2sc(C3CCNCC3)nc2c1 [Example 283, N-cyclopentyl-2-(piperidin-4-yl)benzo[d]thiazole-5-carboxamide]	14%
CN1CCC(c2nc3ccc(S(=O)(=O)NC4CCCC4)cc3s2)CC1 [Example 288, N-cyclopentyl-2-(1-methylpiperidin-4-yl)benzo[d]thiazole-6-sulfonamide]	11%
